Activity calls are given as the source filed them. No cut-off for these calls is given here.
What was measured:
BV-2 [1] = assay: Antiinflammatory activity against mouse BV-2 cells assessed as inhibition of LPS-induced nitric oxide release at 20 uM measured after 24 hrs by Griess reagent based ELISA relative to control; format: functional
BV-2 [2] = assay: Antiinflammatory activity against mouse BV-2 cells assessed as inhibition of LPS-induced iNOS mRNA expression at 20 uM measured after 24 hrs by SYBR green staining based RT-PCR analysis; format: functional, cell-based
BV-2 [3] = assay: Antiinflammatory activity against mouse BV-2 cells assessed as inhibition of LPS-induced IFN-gamma production at 2 to 20 uM measured after 24 hrs by ELISA; format: functional, cell-based; conditions: dose 2-20 µM
BV-2 [4] = assay: Antiinflammatory activity against mouse BV-2 cells assessed as inhibition of LPS-induced TNF-alpha production at 2 to 20 uM measured after 24 hrs by ELISA; format: functional, cell-based; conditions: dose 2-20 µM
BV-2 [5] = assay: Antiinflammatory activity against mouse BV-2 cells assessed as inhibition of LPS-induced decrease of IL-10 at 2 to 20 uM measured after 24 hrs by ELISA; format: functional, cell-based; conditions: dose 2-20 µM
Cortical neurone [6] = assay: Neuroprotective activity against amyloid beta (25 to 35 residues)-induced cell death in ICR mouse primary cortical neurons assessed as increase in cell viability at 20 uM measured after 2 days by CCK-8 assay; format: functional, cell-based; conditions: time 2.0 day
BV-2 [7] = assay: Antiinflammatory activity against mouse BV-2 cells assessed as effect on LPS-induced Arg1 mRNA expression at 20 uM measured after 24 hrs by SYBR green staining based RT-PCR analysis; format: functional, cell-based
BV-2 [8] = assay: Antiinflammatory activity against mouse BV-2 cells assessed as effect on LPS-induced CD206 mRNA expression at 20 uM measured after 24 hrs by SYBR green staining based RT-PCR analysis; format: functional, cell-based
Cortical neurone [9] = assay: Neuroprotective activity against amyloid beta (25 to 35 residues)-induced neuritic atrophy in ICR mouse primary cortical neurons assessed as increase in length of MAP2-positive dendrite at 2 to 20 uM measured after 4 days by immunostaining based fluorescence microscopy; format: functional, cell-based; conditions: dose 2-20 µM, time 4.0 day
BV-2 [10] = assay: Antiinflammatory activity against mouse BV-2 cells assessed as inhibition of LPS-induced decrease of IL-4 at 2 to 20 uM measured after 24 hrs by ELISA; format: functional, cell-based; conditions: dose 2-20 µM
BV-2 [11] = assay: Antiinflammatory activity against mouse BV-2 cells assessed as effect on LPS-induced TGFbeta mRNA expression at 20 uM measured after 24 hrs by SYBR green staining based RT-PCR analysis; format: functional, cell-based

`CCC(C)/C=C(\CO)CCCC(/C=C(C)/C=C(\C)C[C@@H](C)c1oc(=O)c(C)c(O)c1C)C(=O)O` (some centres undefined) was tested, and the inhibition at 20 µM (BV-2 [1]) was greater than 50%.

Work on `CC1=C[C@@](CO)(CCCC(/C=C(C)/C=C(\C)C[C@@H](C)c2oc(=O)c(C)c(O)c2C)C(=O)O)O[C@H]1C` (some centres undefined) yielded an inhibition at 20 µM (BV-2 [1]) greater than 50%.

For `CC(=C\C(CCCc1cc(C)c(C)o1)C(=O)O)/C=C(\C)C[C@@H](C)c1oc(=O)c(C)c(O)c1C` (some centres undefined), the inhibition (BV-2 [2]) was “Active”, the inhibition (BV-2 [3]) was “Active” and the inhibition (BV-2 [4]) was “Active”. For the same molecule, the inhibition (BV-2 [5]) was “Active”, the Activity (Cortical neurone [6]) was “Active” and the Activity (BV-2 [7]) was “inactive”. For the same molecule, the Activity (BV-2 [8]) was “inactive”, the inhibition at 20 µM (BV-2 [1]) was greater than 50% and the Activity (Cortical neurone [9]) was “Active”. For the same molecule, the inhibition (BV-2 [10]) was “Active” and the Activity (BV-2 [11]) was “inactive”.

Molecule `CCC(C)(O)/C=C(\CO)CCCC(/C=C(C)/C=C(\C)C[C@@H](C)c1oc(=O)c(C)c(O)c1C)C(=O)O` (some centres undefined) has an inhibition at 20 µM (BV-2 [1]) greater than 50%.

— ChEMBL document CHEMBL5584221, “Anti-inflammatory and Neuroprotective α-Pyrones from a Marine-Derived Strain of the Fungus Arthrinium arundinis and Their Heterologous Expression” (2024)
